Counter-ions that a name gives are not always drawn. In the oligonucleotide strings, read from the 5' end, every base follows the letter of its sugar. An asterisk marks phosphorothioate; unmarked linkages are phosphodiester. Other units and linkages are bracketed, terminal groups are in braces. A string of capitals states the bases alone. e = 2'-O-(2-methoxyethyl) (MOE); [5mC] = 5-methylcytosine; d = 2'-deoxy (DNA)
System: not given
Test: not given
Settings: dosed orally; cited from earlier work

Compound | reduce growth hormone production and associated IGF-I sufficiently, % of cases [%]
CC(C)C[C@H]1C(=O)N2CCC[C@H]2[C@]2(O)O[C@](NC(=O)[C@@H]3C=C4c5cccc6[nH]c(Br)c(c56)C[C@H]4N(C)C3)(C(C)C)C(=O)N12 [bromocriptine mesylate] | 10
C=CCN1C[C@H](C(=O)N(CCCN(C)C)C(=O)NCC)C[C@@H]2c3cccc4[nH]cc(c34)C[C@H]21 [cabergoline] | 10

System: mouse growth hormone receptor mRNA
Test: Inhibition of mouse growth hormone receptor mRNA levels in b.END cells, quantitative real-time PCR, incl. dose-response
Type: cell-based
Settings: averages from three experiments
Description: The mouse brain endothelial cell line b.END was obtained from Dr. Werner Risau at the Max Plank Instititute (Bad Nauheim, Germany). b.END cells were routinely cultured in DMEM, high glucose (Gibco/Life Technologies, Gaithersburg, Md.) supplemented with 10% fetal calf serum (Gibco/Life Technologies, Gaithersburg, Md.). Cells were routinely passaged by trypsinization and dilution when they reached 90% confluence. Cells were seeded into 96-well plates (Falcon-Primaria #3872) at a density of 3000 cells/well for use in RT-PCR analysis.
When cells reached 65-75% confluency, they were treated with oligonucleotide. For cells grown in 96-well plates, wells were washed once with 100 μL OPTI-MEM™-1 reduced-serum medium (Invitrogen Corporation, Carlsbad, Calif.) and then treated with 130 μL of OPTI-MEM™-1 containing 3.75 μg/mL LIPOFECTIN™ (Invitrogen Corporation, Carlsbad, Calif.) and the desired concentration of oligonucleotide. Cells are treated and data are obtained in triplicate. After 4-7 hours of treatment at 37° C., the medium was replaced with fresh medium. Cells were harvested 16-24 hours after oligonucleotide treatment.
Total RNA was isolated using an RNEASY 96™ kit and buffers purchased from Qiagen Inc. (Valencia, Calif.) following the manufacturer's recommended procedures. Briefly, for cells grown on 96-well plates, growth medium was removed from the cells and each well was washed with 200 μL cold PBS. 150 μL Buffer RLT was added to each well and the plate vigorously agitated for 20 seconds. 150 μL of 70% ethanol was then added to each well and the contents mixed by pipetting three times up and down. The samples were then transferred to the RNEASY 96™ well plate attached to a QIAVAC™ manifold fitted with a waste collection tray and attached to a vacuum source. Vacuum was applied for 1 minute. 500 μL of Buffer RW1 was added to each well of the RNEASY 96™ plate and incubated for 15 minutes and the vacuum was again applied for 1 minute. An additional 500 μL of Buffer RW1 was added to each well of the RNEASY 96™ plate and the vacuum was applied for 2 minutes. 1 mL of Buffer RPE was then added to each well of the RNEASY 96™ plate and the vacuum applied for a period of 90 seconds. The Buffer RPE wash was then repeated and the vacuum was applied for an additional 3 minutes. The plate was then removed from the QIAVAC™ manifold and blotted dry on paper towels. The plate was then re-attached to the QIAVAC™ manifold fitted with a collection tube rack containing 1.2 mL collection tubes. RNA was then eluted by pipetting 140 μL of RNAse free water into each well, incubating 1 minute, and then applying the vacuum for 3 minutes.
Quantitation of growth hormone receptor mRNA levels was accomplished by real-time quantitative PCR using the ABI PRISM™ 7600, 7700, or 7900 Sequence Detection System (PE-Applied Biosystems, Foster City, Calif.) according to manufacturer's instructions. This is a closed-tube, non-gel-based, fluorescence detection system which allows high-throughput quantitation of polymerase chain reaction (PCR) products in real-time. As opposed to standard PCR in which amplification products are quantitated after the PCR is completed, products in real-time quantitative PCR are quantitated as they accumulate. This is accomplished by including in the PCR reaction an oligonucleotide probe that anneals specifically between the forward and reverse PCR primers, and contains two fluorescent dyes. A reporter dye (e.g., FAM or JOE, obtained from either PE-Applied Biosystems, Foster City, Calif., Operon Technologies Inc., Alameda, Calif. or Integrated DNA Technologies Inc., Coralville, Iowa) is attached to the 5′ end of the probe and a quencher dye (e.g., TAMRA, obtained from either PE-Applied Biosystems, Foster City, Calif., Operon Technologies Inc., Alameda, Calif. or Integrated DNA Technologies Inc., Coralville, Iowa) is attached to the 3′ end of the probe. […]

Compound | % INHIB of mouse growth hormone receptor mRNA levels [%]
227509 (antisense eG*e[5mC]*eA*eG*eT*dT*d[5mC]*dT*dA*dT*d[5mC]*dA*dG*dA*dA*e[5mC]*eT*eT*eT*eG) [compound 227509] | 82
227510 (antisense e[5mC]*eT*e[5mC]*e[5mC]*eA*dG*dA*d[5mC]*dG*dT*dG*dA*d[5mC]*d[5mC]*d[5mC]*eG*eA*e[5mC]*eT*e[5mC]) [compound 227510] | 64
227511 (antisense e[5mC]*e[5mC]*eA*e[5mC]*eG*d[5mC]*dA*d[5mC]*d[5mC]*d[5mC]*dA*d[5mC]*dA*dA*dG*e[5mC]*eG*eG*eA*eT) [compound 227511] | 71
227512 (antisense eT*eA*eA*e[5mC]*e[5mC]*dT*dA*dT*dG*dG*dT*dG*dA*d[5mC]*dT*eA*eT*eG*eT*e[5mC]) [compound 227512] | 36
227513 (antisense eT*eA*e[5mC]*e[5mC]*eT*dG*dA*dG*dA*d[5mC]*d[5mC]*dT*dG*d[5mC]*dA*eA*eG*eA*e[5mC]*eA) [compound 227513] | 40
227514 (antisense eA*eT*eG*e[5mC]*eT*d[5mC]*dA*d[5mC]*dG*dT*d[5mC]*dA*dG*d[5mC]*dT*eA*eT*eT*eG*eG) [compound 227514] | 43
227515 (antisense eA*eA*eA*eT*eT*d[5mC]*dT*dT*dA*d[5mC]*dT*dT*dG*dT*d[5mC]*e[5mC]*e[5mC]*e[5mC]*eA*eG) [compound 227515] | 37
227516 (antisense eT*eT*eG*eG*e[5mC]*dT*dT*dT*d[5mC]*d[5mC]*d[5mC]*dT*dG*dG*dA*eG*eG*eT*eT*e[5mC]) [compound 227516] | 57
227517 (antisense e[5mC]*eT*eT*e[5mC]*eA*d[5mC]*dT*dA*dA*d[5mC]*d[5mC]*dT*dT*dG*d[5mC]*eA*eG*e[5mC]*eT*eT) [compound 227517] | 63
227518 (antisense e[5mC]*eA*e[5mC]*eG*eG*d[5mC]*dT*dT*dA*d[5mC]*d[5mC]*dT*dA*dT*dT*eT*e[5mC]*eG*eT*e[5mC]) [compound 227518] | 6
227519 (antisense eT*e[5mC]*eA*e[5mC]*eA*d[5mC]*d[5mC]*dT*dA*d[5mC]*d[5mC]*dT*dT*dT*dG*e[5mC]*eT*eG*e[5mC]*eT) [compound 227519] | 44
227520 (antisense e[5mC]*eA*eT*e[5mC]*eT*dT*dA*dA*dT*d[5mC]*d[5mC]*dT*dT*dG*dG*eA*eA*eA*e[5mC]*eA) [compound 227520] | 42

Reference: patent US9988635B2, “Modulation of growth hormone receptor expression and insulin-like growth factor expression” (Antisense Therapeutics Limited, priority 2003, dated 2018)
